Activity calls are given as the source filed them.
Experiments:
[1] = target: T1, Histone-lysine N-methyltransferase NSD2 (Homo sapiens, UniProt O96028); type: biochemical
T1 sequence (O96028 whole entry): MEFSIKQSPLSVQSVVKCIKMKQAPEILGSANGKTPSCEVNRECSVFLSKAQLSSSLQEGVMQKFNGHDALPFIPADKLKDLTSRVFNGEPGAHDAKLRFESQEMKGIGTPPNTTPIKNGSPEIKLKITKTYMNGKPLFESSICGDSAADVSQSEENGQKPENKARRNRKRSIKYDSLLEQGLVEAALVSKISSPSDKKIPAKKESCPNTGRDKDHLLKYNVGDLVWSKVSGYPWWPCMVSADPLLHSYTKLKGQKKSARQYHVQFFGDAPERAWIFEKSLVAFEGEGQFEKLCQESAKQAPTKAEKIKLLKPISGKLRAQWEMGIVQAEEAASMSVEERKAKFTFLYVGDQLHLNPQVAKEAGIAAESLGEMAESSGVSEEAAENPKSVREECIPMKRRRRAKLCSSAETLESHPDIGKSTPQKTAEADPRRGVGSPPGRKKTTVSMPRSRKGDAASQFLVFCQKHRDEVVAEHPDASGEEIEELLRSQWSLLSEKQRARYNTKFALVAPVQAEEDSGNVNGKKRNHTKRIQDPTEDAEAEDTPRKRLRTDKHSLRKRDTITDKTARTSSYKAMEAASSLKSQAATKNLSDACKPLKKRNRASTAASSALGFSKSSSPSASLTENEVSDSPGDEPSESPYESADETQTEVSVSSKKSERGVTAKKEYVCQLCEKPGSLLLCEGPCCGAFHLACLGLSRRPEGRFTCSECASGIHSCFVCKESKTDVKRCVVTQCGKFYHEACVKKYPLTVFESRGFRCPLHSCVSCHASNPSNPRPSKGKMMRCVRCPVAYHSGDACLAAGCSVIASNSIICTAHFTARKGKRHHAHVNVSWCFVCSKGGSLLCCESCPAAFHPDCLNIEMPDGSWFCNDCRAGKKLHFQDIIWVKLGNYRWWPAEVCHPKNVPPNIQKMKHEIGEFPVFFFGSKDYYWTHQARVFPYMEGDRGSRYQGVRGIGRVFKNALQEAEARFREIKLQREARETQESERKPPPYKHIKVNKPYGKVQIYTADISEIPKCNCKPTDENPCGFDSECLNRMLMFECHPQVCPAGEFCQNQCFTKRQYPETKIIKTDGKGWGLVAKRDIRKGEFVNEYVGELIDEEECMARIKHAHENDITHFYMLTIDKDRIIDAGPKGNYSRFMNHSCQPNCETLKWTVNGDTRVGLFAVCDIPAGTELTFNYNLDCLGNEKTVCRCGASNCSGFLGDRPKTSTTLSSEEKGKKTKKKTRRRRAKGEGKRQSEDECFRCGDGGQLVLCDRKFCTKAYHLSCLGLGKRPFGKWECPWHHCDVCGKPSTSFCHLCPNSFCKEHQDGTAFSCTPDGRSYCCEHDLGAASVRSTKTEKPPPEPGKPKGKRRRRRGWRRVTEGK

[2] = Luminescence Cell-Based Dose Response HTS to Identify Activators of Luciferase Translation or Activity in H4 […] Cells. [Related pubchem assays: 1829 (Project Summary), 1814 (Primary HTS)]; type: functional
[3] = target: T2, Sphingosine 1-phosphate receptor 4 (Homo sapiens, UniProt O95977); experiment: Late stage fluorescence dose response cell-based screening assay for antagonists of the Sphingosine 1-Phosphate Receptor 4 (S1P4). [Related pubchem assays: 1524 (Confirmation screen (S1P4 antagonists).), 1510 (Primary screen (S1P4 antagonists).), 1853 (Summary AID (S1P4 antagonists).), 1692 (Dose response screen (S1P4 antagonists).)]; type: functional
T2 sequence (O95977 whole entry): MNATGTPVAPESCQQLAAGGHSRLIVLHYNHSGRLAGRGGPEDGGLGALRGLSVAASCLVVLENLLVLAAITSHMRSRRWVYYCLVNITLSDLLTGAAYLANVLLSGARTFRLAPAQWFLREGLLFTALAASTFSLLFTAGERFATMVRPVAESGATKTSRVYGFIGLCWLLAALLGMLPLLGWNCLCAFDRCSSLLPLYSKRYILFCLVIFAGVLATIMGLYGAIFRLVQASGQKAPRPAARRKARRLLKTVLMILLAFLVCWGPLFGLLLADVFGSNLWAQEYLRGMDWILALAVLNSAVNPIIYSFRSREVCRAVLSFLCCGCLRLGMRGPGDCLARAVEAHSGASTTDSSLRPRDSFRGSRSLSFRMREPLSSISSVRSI

[4] = THP-1 cell cytotoxicity, dose response, cytotoxicity control for non-replicating M. tuberculosis project (AID 489025); type: functional
[5] = HepG2 cell cytotoxicity, dose response, cytotoxicity control for non-replicating M. tuberculosis project (AID 489018); type: functional; settings: Mycobacterium tuberculosis
[6] = Vero E6 cell cytotoxicity, dose response, cytotoxicity control for non-replicating M. tuberculosis project, secondary assay (AID 492998); type: functional, VeroE6; settings: Vero C1008
SUMO-activating enzyme = SUMO-activating enzyme (Homo sapiens, UniProt Q9UBT2); experiment: SUMOylation inhibitor hit validation, confirmation, SUMOylation inhibitor project, biochemical, AlphaScreen (AID 2018); type: functional
SUMO-activating enzyme, sequence (Q9UBE0 whole entry): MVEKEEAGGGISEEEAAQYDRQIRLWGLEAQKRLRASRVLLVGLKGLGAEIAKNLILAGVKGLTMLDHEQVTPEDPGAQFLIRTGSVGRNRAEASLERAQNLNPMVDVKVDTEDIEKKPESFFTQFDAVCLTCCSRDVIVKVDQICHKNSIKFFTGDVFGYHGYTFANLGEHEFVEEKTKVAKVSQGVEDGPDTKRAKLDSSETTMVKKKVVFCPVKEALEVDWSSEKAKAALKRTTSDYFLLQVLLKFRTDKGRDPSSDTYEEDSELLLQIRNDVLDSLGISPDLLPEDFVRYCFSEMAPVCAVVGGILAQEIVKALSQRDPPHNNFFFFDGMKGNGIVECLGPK
SUMO-activating enzyme, sequence (Q9UBT2 whole entry): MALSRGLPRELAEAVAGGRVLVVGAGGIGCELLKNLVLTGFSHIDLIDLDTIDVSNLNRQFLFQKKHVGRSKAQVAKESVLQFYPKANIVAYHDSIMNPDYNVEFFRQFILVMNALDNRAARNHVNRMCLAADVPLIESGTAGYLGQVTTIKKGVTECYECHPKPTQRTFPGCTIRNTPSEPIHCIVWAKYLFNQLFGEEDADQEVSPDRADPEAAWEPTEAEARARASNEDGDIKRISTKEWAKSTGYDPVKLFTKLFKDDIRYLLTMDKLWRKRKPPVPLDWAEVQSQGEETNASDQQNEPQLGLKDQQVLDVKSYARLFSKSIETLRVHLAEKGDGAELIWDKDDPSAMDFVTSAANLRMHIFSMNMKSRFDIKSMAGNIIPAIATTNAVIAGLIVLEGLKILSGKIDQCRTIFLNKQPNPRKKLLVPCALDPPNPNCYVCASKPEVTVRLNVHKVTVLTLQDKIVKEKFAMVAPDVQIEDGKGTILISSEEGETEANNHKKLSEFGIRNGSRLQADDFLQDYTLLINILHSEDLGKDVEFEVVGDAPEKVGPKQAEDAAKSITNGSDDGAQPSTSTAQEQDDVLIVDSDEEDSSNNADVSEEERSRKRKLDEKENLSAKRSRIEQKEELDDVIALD

Structure (SMILES): CC1OC(Nc2cccc3ccccc23)C(O)C(O)C1O (configuration not stated)
- AC50 [1]: 9.24 µM (active)

Structure (SMILES): O=C(Nc1ccccc1)c1nnsc1[S+]([O-])c1ccc(Cl)cc1 (configuration not stated)
- EC50 [2]: 4.31 µM (active)
- IC50 [3]: 12 µM (not active)
- CC50 [4]: 23.4 µM (active)
- CC50 [5]: 19.1 µM (active)
- CC50 [6]: 13.1 µM (active)

Structure (SMILES): O=C1C=C(Nc2ccccc2)c2ccccc2C1=O
- IC50 (SUMO-activating enzyme): 1.47 µM (active)

Reference: ChEMBL document CHEMBL1201862, “PubChem BioAssay data set” (2004)
